Source: US10189845B2, “4,6-substituted-pyrazolo[1,5-a]pyrazines as janus kinase inhibitors” (ARRAY BIOPHARMA INC., priority 2014, dated 2019)
Counter-ions that a name gives are not always drawn. Like-named read-outs stand apart in the source and are kept apart here.

What was measured:
Format in all cases: biochemical
Human Tyk2 kinase domain = Human Tyk2 kinase domain (Homo sapiens (Human), UniProt P29597); experiment: Tyk2 Inhibition Assay (Example A, Omnia kinase fluorescence peptide substrate assay); details: TYK2 Enzyme IC50 1 mM ATP, averaged IC50 ranges
Outline: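 IC50 values come from a 4-parameter logistic fit of percent-of-control data, with compounds at 2% final DMSO. Reactions held 1 nM His-tag-cleaved Tyk2 (aa 886–1187), 8 μM Omnia Y12 peptide and 1 mM ATP in pH 7.4 HEPES buffer with 10 mM MgCl2, Triton X-100 and DTT. Sox fluorescence (360/485 nm) was monitored kinetically over 45 min.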

JAK1 = JAK1 (Homo sapiens (Human), UniProt P23458); experiment: JAK1 Inhibition Assay (Example B, Omnia kinase fluorescence peptide substrate assay)
Outline: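 Kinetic fluorescence read (360 nm excitation, 485 nm emission, every 50 s over 45 min) of Omnia Y12 peptide (8 μM) phosphorylation by 12.5 nM human JAK1 at 1 mM ATP. Buffer: HEPES pH 7.4, MgCl2, Triton X-100, DTT; 2% DMSO. IC50 = concentration giving 50 POC on logistic curve.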

JAK2 = JAK2 (Homo sapiens (Human), UniProt O60674); experiment: JAK2 Inhibition Assay (Example C, Omnia kinase fluorescence peptide substrate assay); details: JAK2 Enzyme IC50 1 mM ATP, averaged IC50 ranges
Outline: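 Kinetic fluorescence read of Omnia Y7 peptide (10 μM) phosphorylation, ex 360/em 485 nm every 50 s over 45 min, by 4 nM JAK2 at 1 mM ATP. Buffer 25 mM HEPES pH 7.4, 10 mM MgCl2, 0.01% Triton X-100, 1 mM DTT; final DMSO 2%. Percent-of-control values fitted by 4-parameter logistic for IC50.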

JAK3 = JAK3 (Homo sapiens (Human), UniProt P52333); experiment: JAK3 Inhibition Assay (Example D, Omnia kinase fluorescence peptide substrate assay)
Outline: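 Omnia Sox-peptide kinetic read (ex 360 nm, em 485 nm, every 50 s over 45 min) tracked phosphorylation of 10 μM Y7 peptide by 2 nM recombinant JAK3 at 1 mM ATP. Buffer: 25 mM HEPES pH 7.4, 10 mM MgCl2, 0.01% Triton X-100, 1 mM DTT, with 2% DMSO final.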

[1] = JAK1 Enzyme IC50 1 mM ATP, 1 mM ATP, averaged IC50 ranges

Chain of Human Tyk2 kinase domain (P29597 886-1187): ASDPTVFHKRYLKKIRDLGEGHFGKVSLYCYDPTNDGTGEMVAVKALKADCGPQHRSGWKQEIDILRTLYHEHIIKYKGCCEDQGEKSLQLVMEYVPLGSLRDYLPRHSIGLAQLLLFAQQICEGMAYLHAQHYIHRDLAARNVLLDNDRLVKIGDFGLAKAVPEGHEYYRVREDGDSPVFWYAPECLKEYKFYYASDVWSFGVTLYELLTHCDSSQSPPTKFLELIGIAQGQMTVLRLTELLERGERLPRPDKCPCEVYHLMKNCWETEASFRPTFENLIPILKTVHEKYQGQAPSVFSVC
Chain of JAK2 (O60674 whole entry): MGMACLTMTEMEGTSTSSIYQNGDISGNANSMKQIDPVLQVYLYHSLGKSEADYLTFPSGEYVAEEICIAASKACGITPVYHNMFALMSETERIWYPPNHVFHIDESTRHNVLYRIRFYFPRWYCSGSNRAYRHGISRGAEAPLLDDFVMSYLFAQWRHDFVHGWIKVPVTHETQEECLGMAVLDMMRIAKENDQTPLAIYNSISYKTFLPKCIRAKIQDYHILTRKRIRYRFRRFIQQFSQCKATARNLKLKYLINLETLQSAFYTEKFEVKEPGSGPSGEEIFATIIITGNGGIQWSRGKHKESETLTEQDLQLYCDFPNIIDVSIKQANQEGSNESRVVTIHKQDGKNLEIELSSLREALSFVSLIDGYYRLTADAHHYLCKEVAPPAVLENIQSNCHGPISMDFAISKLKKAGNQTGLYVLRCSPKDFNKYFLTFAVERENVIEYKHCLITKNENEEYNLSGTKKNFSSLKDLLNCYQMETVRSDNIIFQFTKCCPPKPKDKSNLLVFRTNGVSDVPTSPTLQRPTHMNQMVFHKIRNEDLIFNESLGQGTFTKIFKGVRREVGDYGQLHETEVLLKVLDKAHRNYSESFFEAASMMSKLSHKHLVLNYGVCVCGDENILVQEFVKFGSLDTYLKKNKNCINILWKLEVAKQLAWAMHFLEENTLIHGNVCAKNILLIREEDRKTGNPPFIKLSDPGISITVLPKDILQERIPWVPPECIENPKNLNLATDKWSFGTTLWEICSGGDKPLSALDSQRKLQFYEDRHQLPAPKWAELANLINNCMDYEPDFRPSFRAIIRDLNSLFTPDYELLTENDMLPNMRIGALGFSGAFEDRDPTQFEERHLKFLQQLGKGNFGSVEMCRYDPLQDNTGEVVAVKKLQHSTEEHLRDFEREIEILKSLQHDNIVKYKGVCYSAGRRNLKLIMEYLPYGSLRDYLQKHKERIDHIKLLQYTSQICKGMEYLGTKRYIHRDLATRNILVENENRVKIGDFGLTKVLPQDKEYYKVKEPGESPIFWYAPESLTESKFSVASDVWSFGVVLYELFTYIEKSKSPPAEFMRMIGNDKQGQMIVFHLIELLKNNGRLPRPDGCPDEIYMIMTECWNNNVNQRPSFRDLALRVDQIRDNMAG
Chain of JAK3 (P52333 whole entry): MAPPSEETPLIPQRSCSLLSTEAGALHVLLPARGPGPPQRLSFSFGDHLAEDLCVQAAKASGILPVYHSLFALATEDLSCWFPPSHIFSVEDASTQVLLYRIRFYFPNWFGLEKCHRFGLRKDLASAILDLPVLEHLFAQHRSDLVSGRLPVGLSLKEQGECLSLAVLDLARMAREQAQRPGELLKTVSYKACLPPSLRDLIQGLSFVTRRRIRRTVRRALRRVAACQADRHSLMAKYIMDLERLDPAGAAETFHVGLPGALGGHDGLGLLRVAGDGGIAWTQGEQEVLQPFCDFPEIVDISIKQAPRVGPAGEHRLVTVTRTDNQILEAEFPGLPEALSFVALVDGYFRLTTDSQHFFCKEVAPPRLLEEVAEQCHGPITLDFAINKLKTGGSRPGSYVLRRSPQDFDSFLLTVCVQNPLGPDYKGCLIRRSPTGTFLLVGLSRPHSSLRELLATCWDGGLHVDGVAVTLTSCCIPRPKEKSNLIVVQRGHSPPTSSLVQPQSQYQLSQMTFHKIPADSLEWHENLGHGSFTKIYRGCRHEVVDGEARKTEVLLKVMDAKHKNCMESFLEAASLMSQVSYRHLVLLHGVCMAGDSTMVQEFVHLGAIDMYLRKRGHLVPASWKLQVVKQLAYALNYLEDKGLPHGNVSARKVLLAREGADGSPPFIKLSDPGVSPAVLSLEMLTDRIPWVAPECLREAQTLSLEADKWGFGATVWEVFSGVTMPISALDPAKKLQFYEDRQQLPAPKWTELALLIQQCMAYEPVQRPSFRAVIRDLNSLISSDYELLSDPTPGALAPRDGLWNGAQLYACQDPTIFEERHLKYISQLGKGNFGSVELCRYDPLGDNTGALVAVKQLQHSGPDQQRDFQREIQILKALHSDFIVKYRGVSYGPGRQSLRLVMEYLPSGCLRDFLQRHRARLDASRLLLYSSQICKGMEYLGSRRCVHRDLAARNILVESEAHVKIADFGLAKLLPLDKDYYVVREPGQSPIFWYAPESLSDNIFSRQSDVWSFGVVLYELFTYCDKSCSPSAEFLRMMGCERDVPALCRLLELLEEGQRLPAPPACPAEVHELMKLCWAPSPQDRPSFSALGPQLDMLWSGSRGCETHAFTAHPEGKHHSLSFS
Chain of JAK1 (P23458 whole entry): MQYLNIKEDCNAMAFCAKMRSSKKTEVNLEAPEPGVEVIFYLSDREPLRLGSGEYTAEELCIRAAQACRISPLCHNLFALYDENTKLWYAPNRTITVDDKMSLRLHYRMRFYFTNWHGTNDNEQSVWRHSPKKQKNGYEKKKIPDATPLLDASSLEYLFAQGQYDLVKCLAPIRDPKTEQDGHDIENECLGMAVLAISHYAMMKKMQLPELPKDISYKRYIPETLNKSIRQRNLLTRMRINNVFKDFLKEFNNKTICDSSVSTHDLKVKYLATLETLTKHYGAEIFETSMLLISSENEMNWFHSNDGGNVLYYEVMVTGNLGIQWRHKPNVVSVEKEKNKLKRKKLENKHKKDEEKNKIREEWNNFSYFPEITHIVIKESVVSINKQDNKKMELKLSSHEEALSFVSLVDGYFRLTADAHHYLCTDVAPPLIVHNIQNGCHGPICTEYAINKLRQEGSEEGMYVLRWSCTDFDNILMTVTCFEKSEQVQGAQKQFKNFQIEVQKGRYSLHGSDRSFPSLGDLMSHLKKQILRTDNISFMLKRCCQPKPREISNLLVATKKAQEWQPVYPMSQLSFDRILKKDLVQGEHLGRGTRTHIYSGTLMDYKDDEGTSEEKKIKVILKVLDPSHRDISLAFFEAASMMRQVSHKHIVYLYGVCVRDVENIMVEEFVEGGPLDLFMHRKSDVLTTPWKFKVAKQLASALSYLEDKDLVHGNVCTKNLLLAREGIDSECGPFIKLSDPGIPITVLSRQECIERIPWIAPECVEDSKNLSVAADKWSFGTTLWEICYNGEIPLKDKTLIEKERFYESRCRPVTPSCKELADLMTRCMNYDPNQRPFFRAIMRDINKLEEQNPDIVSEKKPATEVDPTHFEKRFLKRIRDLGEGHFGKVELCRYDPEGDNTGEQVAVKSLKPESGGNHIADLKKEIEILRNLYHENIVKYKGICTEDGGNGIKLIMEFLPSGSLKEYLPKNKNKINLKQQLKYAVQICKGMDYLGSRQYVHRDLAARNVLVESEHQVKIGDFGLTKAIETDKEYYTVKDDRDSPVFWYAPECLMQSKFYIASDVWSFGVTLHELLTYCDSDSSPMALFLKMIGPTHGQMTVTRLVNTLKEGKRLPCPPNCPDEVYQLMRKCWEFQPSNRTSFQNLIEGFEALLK

## CCC(CC)n1cc(-c2nc(-c3cnn(C4CN(C(=O)C(=O)N(C)C)C4)c3)cn3nccc23)cn1 [Example 182, N,N-dimethyl-2-oxo-2-(3-(4-(4-(1-(pentan-3-yl)-1H-pyrazol-4-yl)pyrazolo[1,5-a]pyrazin-6-yl)-1H-pyrazol-1-yl)azetidin-1-yl)acetamide]
Human Tyk2 kinase domain
  IC50: 0.01 to 0.1 µM
JAK1
  IC50: 0.1 to 1 µM
JAK2
  IC50: 0.01 to 0.1 µM
JAK3
  IC50: 1 to 10 µM

## CC[C@H](CC(F)(F)F)n1cc(-c2nc(-c3cnn(C(CO)CO)c3)cn3nccc23)cn1 [Example 211, (R)-2-(4-(4-(1-(1,1,1-trifluoropentan-3-yl)-1H-pyrazol-4-yl)pyrazolo[1,5-a]pyrazin-6-yl)-1H-pyrazol-1-yl)propane-1,3-diol]
Human Tyk2 kinase domain
  IC50: 0.01 to 0.1 µM
JAK1
  IC50: 0.1 to 1 µM
JAK2
  IC50: 0.01 to 0.1 µM
JAK3
  IC50: 1 to 10 µM

## CC(C)n1cc(-c2nc(-c3cnn(C4CCNCC4)c3)cn3nccc23)cn1 [Example 26, 4-(1-isopropyl-1H-pyrazol-4-yl)-6-(1-(piperidin-4-yl)-1H-pyrazol-4-yl)pyrazolo[1,5 a]pyrazine]
Human Tyk2 kinase domain
  IC50: 0.1 to 1 µM
JAK1
  IC50: 1 to 10 µM
JAK2
  IC50: 0.1 to 1 µM
JAK3
  IC50: 1 to 10 µM

## CCC(CC)n1cc(-c2nc(-c3cnn([C@@H](C)[C@H](C)O)c3)cn3nccc23)cn1 (single isomer, unassigned) [Example 155]
Human Tyk2 kinase domain
  IC50: 0.01 to 0.1 µM
JAK1; [1]
  IC50: 0.1 to 1 µM
JAK2
  IC50: 0.01 to 0.1 µM
JAK3
  IC50: 1 to 10 µM

## CCC(CC)n1cc(-c2nc(-c3cnn(CC(C)(C)O)c3)cn3nccc23)cn1 [Example 117, 2-methyl-1-(4-(4-(1-(pentan-3-yl)-1H-pyrazol-4-yl)pyrazolo[1,5-a]pyrazin-6-yl)-1H-pyrazol-1-yl)propan-2-ol]
Human Tyk2 kinase domain
  IC50: 0.1 to 1 µM
JAK1
  IC50: 0.1 to 1 µM
JAK2
  IC50: 0.1 to 1 µM
JAK3
  IC50: 1 to 10 µM

## CCOC(C)n1cc(-c2nc(-c3cnn(C)c3)cn3nccc23)cn1 (stereo not drawn) [Example 1, 4-(1-(1-ethoxyethyl)-1H-pyrazol-4-yl)-6-(1-methyl-1H-pyrazol-4-yl)pyrazolo[1,5-a]pyrazine]
Human Tyk2 kinase domain
  IC50: 1 to 10 µM
JAK1
  IC50: 1 to 10 µM
JAK2
  IC50: 1 to 10 µM
JAK3
  IC50: 1 to 10 µM

## CCC(CC)n1cc(-c2nc(-c3cnn(C[C@@H](O)CCO)c3)cn3nccc23)cn1 (single isomer, unassigned) [Example 200]
Human Tyk2 kinase domain
  IC50: 0.01 to 0.1 µM
JAK1
  IC50: 0.1 to 1 µM
JAK2
  IC50: 0.01 to 0.1 µM
JAK3
  IC50: 1 to 10 µM

## CCC(CC)n1cc(-c2nc(-c3cnn(CCN4CCC(O)CC4)c3)cn3nccc23)cn1 [Example 139, 1-(2-(4-(4-(1-(pentan-3-yl)-1H-pyrazol-4-yl)pyrazolo[1,5-a]pyrazin-6-yl)-1H-pyrazol-1-yl)ethyl)piperidin-4-ol]
Human Tyk2 kinase domain
  IC50: 0.01 to 0.1 µM
JAK1
  IC50: 0.1 to 1 µM
JAK2
  IC50: 0.1 to 1 µM
JAK3
  IC50: 1 to 10 µM

## CC[C@@H](C)n1cc(-c2nc(-c3cnn(C[C@H](O)CO)c3)cn3nccc23)cn1 [Example 71, (S)-3-(4-(4-(1-((R)-sec-butyl)-1H-pyrazol-4-yl)pyrazolo[1,5-a]pyrazin-6-yl)-1H-pyrazol-1-yl)propane-1,2-diol]
Human Tyk2 kinase domain
  IC50: 0.1 to 1 µM
JAK1; [1]
  IC50: 1 to 10 µM
JAK2
  IC50: 0.1 to 1 µM
JAK3
  IC50: 1 to 10 µM

## CCC(CC)n1cc(-c2nc(-c3cnn([C@@H]4CCNC[C@H]4O)c3)cn3nccc23)cn1 [Example 188, (3R,4R)-4-(4-(4-(1-(pentan-3-yl)-1H-pyrazol-4-yl)pyrazolo[1,5-a]pyrazin-6-yl)-1H-pyrazol-1-yl)piperidin-3-ol]
Human Tyk2 kinase domain
  IC50: 0.01 to 0.1 µM
JAK1
  IC50: 1 to 10 µM
JAK2
  IC50: 0.01 to 0.1 µM
JAK3
  IC50: 1 to 10 µM

## CCC(CC)n1cc(-c2nc(-c3cnn(C[C@@H](O)CC)c3)cn3nccc23)cn1 [Example 114, (S)-1-(4-(4-(1-(pentan-3-yl)-1H-pyrazol-4-yl)pyrazolo[1,5-a]pyrazin-6-yl)-1H-pyrazol-1-yl)butan-2-ol]
Human Tyk2 kinase domain
  IC50: 0.01 to 0.1 µM
JAK1
  IC50: 0.1 to 1 µM
JAK2
  IC50: 0.01 to 0.1 µM
JAK3
  IC50: 1 to 10 µM

## CCC(CC)n1cc(-c2nc(-c3cnn(CC(O)CCO)c3)cn3nccc23)cn1 (stereo not drawn) [Example 63, 4-(4-(4-(1-(pentan-3-yl)-1H-pyrazol-4-yl)pyrazolo[1,5-a]pyrazin-6-yl)-1H-pyrazol-1-yl)butane-1,3-diol]
Human Tyk2 kinase domain
  IC50: 0.01 to 0.1 µM
JAK1
  IC50: 0.1 to 1 µM
JAK2
  IC50: 0.01 to 0.1 µM
JAK3
  IC50: 1 to 10 µM

## CCC(CC)n1cc(-c2nc(-c3cnn(C4CCNCC4)c3)cn3nccc23)cn1 [Example 25, 4-(1-(pentan-3-yl)-1H-pyrazol-4-yl)-6-(1-(piperidin-4-yl)-1H-pyrazol-4-yl)pyrazolo[1,5a]pyrazine hydrochloride]
Human Tyk2 kinase domain
  IC50: 0.01 to 0.1 µM
JAK1
  IC50: 0.1 to 1 µM
JAK2
  IC50: 0.01 to 0.1 µM
JAK3
  IC50: 1 to 10 µM

## CCC(CC)n1cc(-c2nc(-c3cnn(C[C@@H](C)O)c3)cn3nccc23)cn1 [Example 109, (R)-1-(4-(4-(1-(pentan-3-yl)-1H-pyrazol-4-yl)pyrazolo[1,5-a]pyrazin-6-yl)-1H-pyrazol-1-yl)propan-2-ol]
Human Tyk2 kinase domain
  IC50: 0.1 to 1 µM
JAK1
  IC50: 1 to 10 µM
JAK2
  IC50: 1 to 10 µM
JAK3
  IC50: 1 to 10 µM

## CCC(CC)n1cc(-c2nc(-c3cnn(CCN4CCCC4)c3)cn3nccc23)cn1 [Example 135, 4-(1-(pentan-3-yl)-1H-pyrazol-4-yl)-6-(1-(2-(pyrrolidin-1-yl)ethyl)-1H-pyrazol-4-yl)pyrazolo[1,5-a]pyrazine]
Human Tyk2 kinase domain
  IC50: 0.01 to 0.1 µM
JAK1
  IC50: 1 to 10 µM
JAK2
  IC50: 0.01 to 0.1 µM
JAK3
  IC50: 1 to 10 µM

## CCC(CC)n1cc(-c2nc(-c3cnn(CC4CCOCC4)c3)cn3nccc23)cn1 [Example 4, 4-(1-(pentan-3-yl)-1H-pyrazol-4-yl)-6-(1-((tetrahydro-2H-pyran-4-yl)methyl)-1H-pyrazol-4-yl)pyrazolo[1,5-a]pyrazine]
Human Tyk2 kinase domain
  IC50: 0.01 to 0.1 µM
JAK1
  IC50: 0.1 to 1 µM
JAK2
  IC50: 0.01 to 0.1 µM
JAK3
  IC50: 1 to 10 µM

## CCC(CC)n1cc(-c2nc(-c3cnn(C[C@H](O)CN4CCCC4)c3)cn3nccc23)cn1 [Example 105, (R)-1-(4-(4-(1-(pentan-3-yl)-1H-pyrazol-4-yl)pyrazolo[1,5-a]pyrazin-6-yl)-1H-pyrazol-1-yl)-3-(pyrrolidin-1-yl)propan-2-ol]
Human Tyk2 kinase domain
  IC50: 0.1 to 1 µM
JAK1; [1]
  IC50: 1 to 10 µM
JAK2
  IC50: 0.1 to 1 µM
JAK3
  IC50: 1 to 10 µM

## CCC(CC)n1cc(-c2nc(-c3cnn(C[C@H](O)CNC)c3)cn3nccc23)cn1 [Example 100, (R)-1-(methylamino)-3-(4-(4-(1-(pentan-3-yl)-1H-pyrazol-4-yl)pyrazolo[1,5-a]pyrazin-6-yl)-1H-pyrazol-1-yl)propan-2-ol]
Human Tyk2 kinase domain
  IC50: 0.01 to 0.1 µM
JAK1; [1]
  IC50: 1 to 10 µM
JAK2
  IC50: 0.01 to 0.1 µM
JAK3
  IC50: 1 to 10 µM

## CC[C@@H](C)n1cc(-c2nc(-c3cnn(C[C@@H](O)CO)c3)cn3nccc23)cn1 [Example 69, (R)-3-(4-(4-(1-((R)-sec-butyl)-1H-pyrazol-4-yl)pyrazolo[1,5-a]pyrazin-6-yl)-1H-pyrazol-1-yl)propane-1,2-diol]
Human Tyk2 kinase domain
  IC50: 0.1 to 1 µM
JAK1; [1]
  IC50: 1 to 10 µM
JAK2
  IC50: 0.1 to 1 µM
JAK3
  IC50: 1 to 10 µM

## CCC(CC)n1cc(-c2nc(-c3cnn([C@@H](C)[C@@H](O)CO)c3)cn3nccc23)cn1 (single isomer, unassigned) [Example 91]
Human Tyk2 kinase domain
  IC50: 0.01 to 0.1 µM
JAK1
  IC50: 0.1 to 1 µM
JAK2
  IC50: 0.01 to 0.1 µM
JAK3
  IC50: 1 to 10 µM

## CC[C@@H](CC1CC1)n1cc(-c2nc(-c3cnn(C[C@@H](O)CO)c3)cn3nccc23)cn1 [Example 205, (R)-3-(4-(4-(1-((S)-1-cyclopropylbutan-2-yl)-1H-pyrazol-4-yl)pyrazolo[1,5-a]pyrazin-6-yl)-1H-pyrazol-1-yl)propane-1,2-diol]
Human Tyk2 kinase domain
  IC50: 0.01 to 0.1 µM
JAK1; [1]
  IC50: 0.1 to 1 µM
JAK2
  IC50: 0.01 to 0.1 µM
JAK3
  IC50: 1 to 10 µM

## CCC(CC)n1cc(-c2nc(-c3cnn(C[C@H]4CCC(=O)N4)c3)cn3nccc23)cn1 [Example 18, (R)-5-((4-(4-(1-(pentan-3-yl)-1H-pyrazol-4-yl)pyrazolo[1,5-a]pyrazin-6-yl)-1H-pyrazol-1-yl)methyl)pyrrolidin-2-one]
Human Tyk2 kinase domain
  IC50: 0.01 to 0.1 µM
JAK1
  IC50: 0.01 to 0.1 µM
JAK2
  IC50: 0.01 to 0.1 µM
JAK3
  IC50: 1 to 10 µM

## CCC(CC)n1cc(-c2nc(-c3cnn(C[C@@H](N)CO)c3)cn3nccc23)cn1 [Example 130, (R)-2-amino-3-(4-(4-(1-(pentan-3-yl)-1H-pyrazol-4-yl)pyrazolo[1,5-a]pyrazin-6-yl)-1H-pyrazol-1-yl)propan-1-ol]
Human Tyk2 kinase domain
  IC50: 0.01 to 0.1 µM
JAK1
  IC50: 1 to 10 µM
JAK2
  IC50: 0.01 to 0.1 µM
JAK3
  IC50: 1 to 10 µM

## CCC(CC)n1cc(-c2nc(-c3cnn([C@H]4C[C@@H](O)C4)c3)cn3nccc23)cn1 [Example 119, cis-3-(4-(4-(1-(pentan-3-yl)-1H-pyrazol-4-yl)pyrazolo[1,5-a]pyrazin-6-yl)-1H-pyrazol-1-yl)cyclobutanol]
Human Tyk2 kinase domain
  IC50: < 0.01 µM
JAK1; [1]
  IC50: 0.1 to 1 µM
JAK2
  IC50: 0.01 to 0.1 µM
JAK3
  IC50: 1 to 10 µM
